Measurements: ChEMBL document CHEMBL5465560, “Selectivity Literature for EUbOPEN Chemogenomic Library” (2024)

Tests used:
[1] = molecular target: Calcium/calmodulin-dependent protein kinase type II subunit alpha (Homo sapiens, UniProt Q9UQM7); experiment: Selectivity interaction (KinomeScan (DiscoverX)) EUB0000229b CAMK2A; details: at 10 µM
[2] = molecular target: T1, Ephrin type-A receptor 8 (Homo sapiens) (UniProt P29322); experiment: Selectivity interaction (KinomeScan (DiscoverX)) EUB0000045b EPHA8
T1 sequence (whole entry): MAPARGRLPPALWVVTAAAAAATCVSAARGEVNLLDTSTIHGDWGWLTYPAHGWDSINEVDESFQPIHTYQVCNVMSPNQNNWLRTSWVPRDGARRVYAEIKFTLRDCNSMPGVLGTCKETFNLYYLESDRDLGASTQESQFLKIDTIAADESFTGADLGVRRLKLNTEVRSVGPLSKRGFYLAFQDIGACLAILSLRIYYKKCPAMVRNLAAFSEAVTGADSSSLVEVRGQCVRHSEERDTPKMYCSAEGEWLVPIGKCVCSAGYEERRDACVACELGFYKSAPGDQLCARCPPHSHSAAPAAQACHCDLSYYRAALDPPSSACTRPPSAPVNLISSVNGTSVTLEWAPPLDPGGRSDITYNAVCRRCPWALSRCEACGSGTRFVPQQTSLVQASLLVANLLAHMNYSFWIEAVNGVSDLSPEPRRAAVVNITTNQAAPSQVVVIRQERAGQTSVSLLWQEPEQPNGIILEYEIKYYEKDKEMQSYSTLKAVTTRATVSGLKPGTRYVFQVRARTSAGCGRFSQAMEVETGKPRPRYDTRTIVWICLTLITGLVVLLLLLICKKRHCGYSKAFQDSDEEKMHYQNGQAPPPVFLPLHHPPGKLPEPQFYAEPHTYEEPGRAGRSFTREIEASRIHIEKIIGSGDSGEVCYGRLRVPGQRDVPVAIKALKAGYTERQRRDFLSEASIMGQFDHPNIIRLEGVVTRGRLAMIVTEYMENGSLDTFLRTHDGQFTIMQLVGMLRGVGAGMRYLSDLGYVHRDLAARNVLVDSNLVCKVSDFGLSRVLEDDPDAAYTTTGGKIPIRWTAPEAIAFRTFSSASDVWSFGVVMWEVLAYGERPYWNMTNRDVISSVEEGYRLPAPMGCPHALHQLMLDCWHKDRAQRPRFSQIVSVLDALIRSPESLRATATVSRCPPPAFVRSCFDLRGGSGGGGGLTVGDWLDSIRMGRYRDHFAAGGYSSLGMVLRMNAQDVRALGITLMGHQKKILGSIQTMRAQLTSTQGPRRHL

[3] = molecular target: BMP-2-inducible protein kinase (Homo sapiens) (UniProt Q9NSY1); experiment: Selectivity interaction (KinomeScan (DiscoverX)) EUB0000045b BMP2K
Sequence of BMP-2-inducible protein kinase (Homo sapiens) (Q9NSY1 whole entry, looked up): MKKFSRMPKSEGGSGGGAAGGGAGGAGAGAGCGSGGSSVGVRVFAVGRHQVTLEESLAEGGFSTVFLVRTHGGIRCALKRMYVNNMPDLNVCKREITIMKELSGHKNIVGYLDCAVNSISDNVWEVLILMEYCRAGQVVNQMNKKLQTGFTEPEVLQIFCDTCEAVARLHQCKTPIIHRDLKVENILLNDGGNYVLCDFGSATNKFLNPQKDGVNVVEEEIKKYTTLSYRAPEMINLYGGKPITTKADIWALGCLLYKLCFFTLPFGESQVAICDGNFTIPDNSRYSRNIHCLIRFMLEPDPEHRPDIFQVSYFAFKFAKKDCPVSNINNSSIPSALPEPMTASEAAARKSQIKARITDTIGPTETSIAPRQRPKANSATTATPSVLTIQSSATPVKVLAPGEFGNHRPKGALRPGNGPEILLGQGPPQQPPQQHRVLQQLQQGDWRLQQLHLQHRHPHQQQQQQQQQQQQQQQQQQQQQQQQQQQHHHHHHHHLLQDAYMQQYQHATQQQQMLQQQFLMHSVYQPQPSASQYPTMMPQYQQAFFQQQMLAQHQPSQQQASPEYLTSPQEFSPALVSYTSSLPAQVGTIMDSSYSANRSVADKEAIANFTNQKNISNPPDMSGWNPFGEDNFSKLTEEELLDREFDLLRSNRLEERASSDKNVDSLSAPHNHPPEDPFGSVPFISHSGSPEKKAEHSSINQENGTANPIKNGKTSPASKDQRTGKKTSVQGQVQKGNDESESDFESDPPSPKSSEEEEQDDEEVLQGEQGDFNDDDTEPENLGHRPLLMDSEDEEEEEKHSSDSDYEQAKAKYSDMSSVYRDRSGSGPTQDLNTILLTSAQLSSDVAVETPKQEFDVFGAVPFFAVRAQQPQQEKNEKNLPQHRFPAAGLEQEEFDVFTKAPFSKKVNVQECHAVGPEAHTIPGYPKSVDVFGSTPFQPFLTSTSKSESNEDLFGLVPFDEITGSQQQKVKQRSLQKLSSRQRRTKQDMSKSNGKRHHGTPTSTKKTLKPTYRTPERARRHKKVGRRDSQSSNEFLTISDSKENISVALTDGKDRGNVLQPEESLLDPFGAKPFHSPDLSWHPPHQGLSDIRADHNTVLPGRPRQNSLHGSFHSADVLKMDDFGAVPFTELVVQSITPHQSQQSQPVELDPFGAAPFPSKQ

[4] = molecular target: T2, Serine/threonine-protein kinase TBK1 (Homo sapiens) (UniProt Q9UHD2); experiment: Selectivity interaction (Kinase panel (Z-LYTE Assay)) EUB0001632a TBK1; details: at 10 µM
T2 sequence (whole entry): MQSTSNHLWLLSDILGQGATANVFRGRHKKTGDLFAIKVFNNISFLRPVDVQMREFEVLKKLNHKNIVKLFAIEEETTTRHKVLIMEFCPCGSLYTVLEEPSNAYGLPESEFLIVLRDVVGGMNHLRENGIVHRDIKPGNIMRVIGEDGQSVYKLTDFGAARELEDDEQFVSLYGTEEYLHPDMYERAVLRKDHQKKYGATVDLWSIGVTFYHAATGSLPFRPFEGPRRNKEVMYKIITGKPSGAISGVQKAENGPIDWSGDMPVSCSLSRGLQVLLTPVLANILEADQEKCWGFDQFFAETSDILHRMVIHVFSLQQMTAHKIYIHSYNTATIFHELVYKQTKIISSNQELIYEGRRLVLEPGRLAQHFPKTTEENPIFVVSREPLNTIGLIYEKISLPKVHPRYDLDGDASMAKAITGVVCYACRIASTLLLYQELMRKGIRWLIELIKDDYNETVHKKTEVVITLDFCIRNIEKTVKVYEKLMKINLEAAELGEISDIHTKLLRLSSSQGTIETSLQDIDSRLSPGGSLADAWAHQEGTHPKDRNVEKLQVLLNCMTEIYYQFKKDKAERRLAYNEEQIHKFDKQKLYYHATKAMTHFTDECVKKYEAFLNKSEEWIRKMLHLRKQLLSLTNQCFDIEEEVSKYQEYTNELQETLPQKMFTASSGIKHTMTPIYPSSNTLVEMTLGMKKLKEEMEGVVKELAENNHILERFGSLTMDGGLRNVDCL

[5] = molecular target: Cyclin-dependent kinase 3 (Homo sapiens) (UniProt Q00526); experiment: Selectivity interaction (KinomeScan (DiscoverX)) EUB0000666a CDK3; details: at 10 µM
Sequence of Cyclin-dependent kinase 3 (Homo sapiens) (Q00526 whole entry, looked up): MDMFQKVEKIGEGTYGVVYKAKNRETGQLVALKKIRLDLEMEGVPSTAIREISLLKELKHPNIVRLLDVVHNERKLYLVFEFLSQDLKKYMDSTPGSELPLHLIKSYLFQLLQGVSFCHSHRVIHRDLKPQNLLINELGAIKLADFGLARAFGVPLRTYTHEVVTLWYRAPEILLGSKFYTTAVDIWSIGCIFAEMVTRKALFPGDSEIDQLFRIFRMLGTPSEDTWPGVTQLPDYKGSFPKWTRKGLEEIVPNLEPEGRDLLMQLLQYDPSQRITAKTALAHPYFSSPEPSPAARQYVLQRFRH

[6] = molecular target: T3, Phosphatidylinositol 5-phosphate 4-kinase type-2 gamma (Homo sapiens) (UniProt Q8TBX8); experiment: Selectivity interaction (ActivX KiNativ screen (ex vivo kinase selectivity in human PBMCs)) EUB0001619a PIP4K2C; assay type: cell-based; details: PBMC, at 1 µM
T3 sequence (whole entry): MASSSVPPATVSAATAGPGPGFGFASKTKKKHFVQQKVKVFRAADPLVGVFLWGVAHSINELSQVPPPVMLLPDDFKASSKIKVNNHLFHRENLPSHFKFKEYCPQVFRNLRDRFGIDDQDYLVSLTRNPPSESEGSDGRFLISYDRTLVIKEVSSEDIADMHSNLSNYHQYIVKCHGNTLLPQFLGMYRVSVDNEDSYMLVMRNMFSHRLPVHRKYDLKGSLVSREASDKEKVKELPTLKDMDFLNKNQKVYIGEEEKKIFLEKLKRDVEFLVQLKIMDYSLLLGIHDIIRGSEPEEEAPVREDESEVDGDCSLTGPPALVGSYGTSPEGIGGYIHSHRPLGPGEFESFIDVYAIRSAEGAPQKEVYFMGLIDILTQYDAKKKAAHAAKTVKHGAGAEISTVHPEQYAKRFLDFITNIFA

[7] = molecular target: T4, MAP kinase-activated protein kinase 5 (Homo sapiens) (UniProt Q8IW41); experiment: Selectivity interaction (KinaseProfiler screening (Millipore)) EUB0000601a MAPKAPK5; details: at 3 µM
T4 sequence (whole entry): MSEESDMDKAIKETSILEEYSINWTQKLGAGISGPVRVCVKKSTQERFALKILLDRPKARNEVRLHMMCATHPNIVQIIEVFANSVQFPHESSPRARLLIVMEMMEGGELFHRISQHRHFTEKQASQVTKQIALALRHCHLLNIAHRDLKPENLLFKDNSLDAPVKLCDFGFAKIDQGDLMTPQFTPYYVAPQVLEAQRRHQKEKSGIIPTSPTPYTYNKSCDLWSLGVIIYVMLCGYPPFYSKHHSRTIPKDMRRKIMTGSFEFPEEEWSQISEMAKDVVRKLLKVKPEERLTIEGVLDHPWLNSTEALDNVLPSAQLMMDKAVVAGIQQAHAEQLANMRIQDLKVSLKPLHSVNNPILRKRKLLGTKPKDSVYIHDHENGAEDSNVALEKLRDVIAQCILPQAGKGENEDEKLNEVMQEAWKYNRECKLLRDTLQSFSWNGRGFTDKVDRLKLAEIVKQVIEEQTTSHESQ

Sequence of Calcium/calmodulin-dependent protein kinase type II subunit alpha (Q9UQM7 whole entry): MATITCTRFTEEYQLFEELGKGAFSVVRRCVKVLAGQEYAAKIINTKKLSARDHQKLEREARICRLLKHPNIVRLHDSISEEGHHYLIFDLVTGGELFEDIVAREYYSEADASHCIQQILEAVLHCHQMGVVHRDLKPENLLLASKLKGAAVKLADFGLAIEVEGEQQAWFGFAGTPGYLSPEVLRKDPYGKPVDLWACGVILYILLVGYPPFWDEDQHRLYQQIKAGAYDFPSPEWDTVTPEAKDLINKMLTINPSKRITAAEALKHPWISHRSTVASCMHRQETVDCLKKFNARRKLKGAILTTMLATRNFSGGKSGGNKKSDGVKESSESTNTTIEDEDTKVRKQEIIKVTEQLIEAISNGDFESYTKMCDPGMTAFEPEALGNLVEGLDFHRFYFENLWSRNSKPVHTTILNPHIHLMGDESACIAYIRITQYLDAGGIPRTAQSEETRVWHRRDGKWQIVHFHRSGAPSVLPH

With `COc1cc(N(C)c2ccnc3ccc(C(F)(F)F)cc23)cc(OC)c1OC` the % binding [1] was 77%.

With `C=CC(=O)Nc1cc(-n2c(=O)ccc3cnc4ccc(-c5ccc(NS(C)(=O)=O)cc5)cc4c32)ccc1C` the % of control ([2]; at 1 µM) was 100%, the % of control ([2]; at 10 µM) was 76% and the % of control ([3]; at 1 µM) was 76%. The % of control ([3]; at 10 µM) was 39%.

Molecule `Cn1cc(-n2cnc3c(NCc4nc5cc(Cl)c(Cl)cc5[nH]4)nc(N4CCOCC4)nc32)cn1` has a % of control [4] of -4.28%.

Molecule `O=C(NOC[C@H](O)CO)c1ccc(F)c(F)c1Nc1ccc(I)cc1F` has a % of control [5] of 69%.

`N#Cc1cccc(-c2c[nH]c3ncnc(N4CCOCC4)c23)c1` gave a % of inhibition [6] of 54%.

`CCc1cc(Nc2nccc(-c3c(-c4ccc(OC)c(C(=O)Nc5c(F)cccc5F)c4)nc4ccccn34)n2)c(OC)cc1N1CCC(N2CCN(S(C)(=O)=O)CC2)CC1` gave a % of inhibition [7] of 35%.
